Source: US11434234B2, “Methods and agents for treating disease” (ANGION BIOMEDICA CORP., priority 2014, dated 2022)

molecular target: T1, human CYP11B2 (Homo sapiens, UniProt P19099); test: Aldosterone inhibitory activity in V79 cells expressing human CYP11B2; type: cell-based; conditions: V79 Chinese hamster cells stably transfected with human CYP11B2; substrate 11-deoxycorticosterone 100 nM; read-out: IC50, inhibition of the production of aldosterone
T1 construct: expressed in transfected cells; host or cells: V79 Chinese hamster cells
T1 sequence (P19099 25-503): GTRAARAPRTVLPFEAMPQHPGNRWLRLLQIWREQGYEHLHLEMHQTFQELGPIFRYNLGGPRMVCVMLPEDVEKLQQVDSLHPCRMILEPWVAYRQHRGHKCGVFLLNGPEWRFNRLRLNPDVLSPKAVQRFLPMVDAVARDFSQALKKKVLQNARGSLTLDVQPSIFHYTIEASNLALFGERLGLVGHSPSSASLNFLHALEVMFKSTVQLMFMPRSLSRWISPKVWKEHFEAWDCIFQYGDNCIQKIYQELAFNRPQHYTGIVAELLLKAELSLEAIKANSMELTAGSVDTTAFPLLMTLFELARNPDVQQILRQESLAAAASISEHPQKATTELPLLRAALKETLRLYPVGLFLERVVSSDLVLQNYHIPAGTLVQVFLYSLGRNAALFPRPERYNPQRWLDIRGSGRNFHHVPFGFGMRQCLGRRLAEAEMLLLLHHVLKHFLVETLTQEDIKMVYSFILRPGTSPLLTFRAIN
Procedure: For the determination of aldosterone inhibitory activity, tests were carried out using V79 Chinese hamster cells stably transfected with human CYP11B2 or CYP11B1 and using assay protocols as described in Ehmer P B, Bureik M, Bernhardt R, Muller U, Hartmann R W. Development of a test system for inhibitors of human aldosterone synthase (CYP11B2): screening in fission yeast and evaluation of selectivity in V79 cells. J. Steroid Biochem. Mol. Biol. 2002 June; 81(2):173-9. The concentration of the substrate 11-deoxycorticosterone in the assay was 100 nM.

| Compound | IC50 [nM] |
| --- | --- |
| CCCC(O)(c1nc2cccc(Br)c2s1)c1cnccc1OCC (stereo not drawn) [Example 30, 1-(7-bromobenzo[d]thiazol-2-yl)-1-(4-ethoxypyridin-3-yl)butan-1-ol] | < 1000 |
| CCCC(O)(c1nc2cc(C)c(OC(F)(F)F)cc2s1)c1cnccc1OCC (stereo not drawn) [Example 60, 1-(4-ethoxypyridin-3-yl)-1-(5-methyl-6-(trifluoromethoxy)benzo[d]thiazol-2-yl)butan-1-ol] | < 1000 |
| CCCC(O)(c1nc2ccc(OC(F)(F)F)cc2s1)c1cnccc1OC(C)C (stereo not drawn) [Example 49, 1-(4-isopropoxypyridin-3-yl)-1-(6-(trifluoromethoxy)benzo[d]thiazol-2-yl)butan-1-ol] | < 1000 |
| CCCC(O)(c1nc2cccc(Cl)c2s1)c1cnccc1OCC (stereo not drawn) [Example 42, 1-(7-chlorobenzo[d]thiazol-2-yl)-1-(4-ethoxypyridin-3-yl)butan-1-ol] | < 1000 |
| CCCC(O)(c1nc2ccc(OC(F)(F)F)c(Br)c2s1)c1cnccc1OCC (stereo not drawn) [Example 57, 1-(7-bromo-6-(trifluoromethoxy)benzo[d]thiazol-2-yl)-1-(4-ethoxypyridin-3-yl)butan-1-ol] | < 1000 |
| COc1ccncc1C(O)(c1nc2ccc(Br)cc2s1)C(C)C (stereo not drawn) [Example 25, 1-(6-bromobenzo[d]thiazol-2-yl)-1-(4-methoxypyridin-3-yl)-2-methylpropan-1-ol] | < 1000 |
| CCCC(O)(c1nc2cccc(C(F)(F)F)c2s1)c1cnccc1OCC (stereo not drawn) [Example 47, 1-(4-ethoxypyridin-3-yl)-1-(7-(trifluoromethyl)benzo[d]thiazol-2-yl)butan-1-ol] | < 1000 |
| CCCC(O)(c1nc2ccc([N+](=O)[O-])cc2s1)c1cnccc1OC (stereo not drawn) [Example 28, 1-(4-methoxypyridin-3-yl)-1-(6-nitrobenzo[d]thiazol-2-yl)butan-1-ol] | < 1000 |
| CCCC(O)(c1nc2ccc(Oc3ccc(F)cc3)cc2s1)c1cnccc1OCC (stereo not drawn) [Example 55, 1-(4-ethoxypyridin-3-yl)-1-(6-(4-fluorophenoxy)benzo[d]thiazol-2-yl)butan-1-ol] | < 1000 |
| CCCC(O)(c1nc2ccc(OC(F)(F)F)cc2s1)c1cnccc1OCC (stereo not drawn) [Example 46, 1-(4-ethoxypyridin-3-yl)-1-(6-(trifluoromethoxy)benzo[d]thiazol-2-yl)butan-1-ol] | < 1000 |
| CCCOc1ccncc1C(O)(CCC)c1nc2ccc(OC(F)(F)F)c(Cl)c2s1 (stereo not drawn) [Example 64, 1-(7-chloro-6-(trifluoromethoxy)benzo[d]thiazol-2-yl)-1-(4-propoxypyridin-3-yl)butan-1-ol] | < 1000 |
| COc1ccncc1C(O)(c1nc2cccc(Br)c2s1)C(C)C (stereo not drawn) [1-(7-bromobenzo[d]thiazol-2-yl)-1-(4-methoxypyridin-3-yl)-2-methylpropan-1-ol] | < 1000 |
| CCCOc1ccncc1C(O)(CCC)c1nc2ccc(OC(F)(F)F)cc2s1 (stereo not drawn) [Example 51, 1-(4-propoxypyridin-3-yl)-1-(6-(trifluoromethoxy)benzo[d]thiazol-2-yl)butan-1-ol] | < 1000 |
| CCCC(O)(c1nc2cc(Cl)c(OC(F)(F)F)cc2s1)c1cnccc1OCC (stereo not drawn) [Example 58, 1-(5-chloro-6-(trifluoromethoxy)benzo[d]thiazol-2-yl)-1-(4-ethoxypyridin-3-yl)butan-1-ol] | < 1000 |
| CCCC(O)(c1nc2cccc(Br)c2s1)c1cnccc1OC (stereo not drawn) [Example 24, 1-(7-bromobenzo[d]thiazol-2-yl)-1-(4-methoxypyridin-3-yl)butan-1-ol] | < 1000 |
| CCCC(O)(c1nc2cc(Cl)c(Cl)cc2s1)c1cnccc1OCC (stereo not drawn) [Example 50, 1-(5,6-dichlorobenzo[d]thiazol-2-yl)-1-(4-ethoxypyridin-3-yl)butan-1-ol] | < 1000 |
| CCCC(O)(c1nc2ccc([N+](=O)[O-])cc2s1)c1cnccc1OCC (stereo not drawn) [Example 40, 1-(4-ethoxypyridin-3-yl)-1-(6-nitrobenzo[d]thiazol-2-yl)butan-1-ol] | < 1000 |
| CCCC(O)(c1nc2cccc(OC)c2s1)c1cnccc1OCC (stereo not drawn) [Example 44, 1-(4-ethoxypyridin-3-yl)-1-(7-methoxybenzo[d]thiazol-2-yl)butan-1-ol] | < 1000 |
| CCCC(O)(c1nc2ccc(C#N)cc2s1)c1cnccc1OCC (stereo not drawn) [Example 72, 1-(6-cyanobenzo[d]thiazol-2-yl)-1-(4-ethoxypyridin-3-yl)butan-1-ol] | < 1000 |
| CC(C)Oc1ccncc1C(O)(c1nc2cccc(Br)c2s1)C(C)C (stereo not drawn) [Example 36, 1-(7-bromobenzo[d]thiazol-2-yl)-1-(4-isopropoxypyridin-3-yl)-2-methylpropan-1-ol] | < 1000 |

| Compound | IC50 [nM] |
| --- | --- |
| CCCC(O)(c1nc2ccc(Br)cc2s1)c1cnccc1OC (stereo not drawn) [Example 70, 1-(6-bromobenzo[d]thiazol-2-yl)-1-(4-methoxypyridin-3-yl)butan-1-ol] | < 1000 |
| COc1ccncc1C(O)c1nc2ccc(Br)cc2s1 (stereo not drawn) [Example 26, (6-bromobenzo[d]thiazol-2-yl)(4-methoxypyridin-3-yl)methanol] | < 1000 |
| CCCC(O)(c1nc2cc(F)c(OC(F)(F)F)cc2s1)c1cnccc1OCC (stereo not drawn) [Example 62, 1-(4-ethoxypyridin-3-yl)-1-(5-fluoro-6-(trifluoromethoxy)benzo[d]thiazol-2-yl)butan-1-ol] | < 1000 |
| CC(C)Oc1ccncc1C(O)(c1nc2ccc(Br)cc2s1)C(C)C (stereo not drawn) [Example 35, 1-(6-bromobenzo[d]thiazol-2-yl)-1-(4-isopropoxypyridin-3-yl)-2-methylpropan-1-ol] | < 1000 |
| CCCC(O)(c1nc2cc(Cl)c(OCC(F)(F)F)cc2s1)c1cnccc1OCC (stereo not drawn) [Example 69, 1-(5-chloro-6-(2,2,2-trifluoroethoxy)benzo[d]thiazol-2-yl)-1-(4-ethoxypyridin-3-yl)butan-1-ol] | < 1000 |
| CCCC(O)(c1nc2ccc(C(F)(F)F)cc2s1)c1cnccc1OCC (stereo not drawn) [Example 45, 1-(4-ethoxypyridin-3-yl)-1-(6-(trifluoromethyl)benzo[d]thiazol-2-yl)butan-1-ol] | < 1000 |
| CCOc1ccncc1C(O)(c1nc2ccc(Br)cc2s1)C(C)C (stereo not drawn) [Example 32, 1-(6-bromobenzo[d]thiazol-2-yl)-1-(4-ethoxypyridin-3-yl)-2-methylpropan-1-ol] | < 1000 |
| COc1ccncc1C(O)c1nc2cccc(Br)c2s1 (stereo not drawn) [Example 27, (7-bromobenzo[d]thiazol-2-yl)(4-methoxypyridin-3-yl)methanol] | < 1000 |
| CCCC(O)(c1nc2c(F)ccc(F)c2s1)c1cnccc1OCC (stereo not drawn) [Example 43, 1-(4,7-difluorobenzo[d]thiazol-2-yl)-1-(4-ethoxypyridin-3-yl)butan-1-ol] | < 1000 |
| CCCOc1ccncc1C(O)(CCC)c1nc2cc(Cl)c(OC(F)(F)F)cc2s1 (stereo not drawn) [Example 63, 1-(5-chloro-6-(trifluoromethoxy)benzo[d]thiazol-2-yl)-1-(4-propoxypyridin-3-yl)butan-1-ol] | < 1000 |
| COc1ccncc1C(O)(c1nc2ccccc2s1)C(C)(C)C (stereo not drawn) [Example 31, 1-(benzo[d]thiazol-2-yl)-1-(4-methoxypyridin-3-yl)-2,2-dimethylpropan-1-ol] | < 1000 |
| CCCC(O)(c1nc2ccc(F)cc2s1)c1cnccc1OCC (stereo not drawn) [Example 41, 1-(4-ethoxypyridin-3-yl)-1-(6-fluorobenzo[d]thiazol-2-yl)butan-1-ol] | < 1000 |
| CCCC(O)(c1nc2ccc(OC(F)(F)F)c(Cl)c2s1)c1cnccc1OCC (stereo not drawn) [Example 59, 1-(7-chloro-6-(trifluoromethoxy)benzo[d]thiazol-2-yl)-1-(4-ethoxypyridin-3-yl)butan-1-ol] | < 1000 |
| CCCC(O)(c1nc2ccc(OC(F)(F)F)c(C)c2s1)c1cnccc1OCC (stereo not drawn) [Example 61, 1-(4-ethoxypyridin-3-yl)-1-(7-methyl-6-(trifluoromethoxy)benzo[d]thiazol-2-yl)butan-1-ol] | < 1000 |
| CCCC(O)(c1nc2ccc(Oc3ccc(OC(F)(F)F)cc3)cc2s1)c1cnccc1OCC (stereo not drawn) [Example 54, 1-(4-ethoxypyridin-3-yl)-1-(6-(4-(trifluoromethoxy)phenoxy)benzo[d]thiazol-2-yl)butan-1-ol] | < 1000 |
| CCCC(O)(c1nc2cc(Br)c(OC(F)(F)F)cc2s1)c1cnccc1OCC (stereo not drawn) [Example 56, 1-(5-bromo-6-(trifluoromethoxy)benzo[d]thiazol-2-yl)-1-(4-ethoxypyridin-3-yl)butan-1-ol] | < 1000 |
| CC(C)c1ccncc1C(O)(c1nc2ccc(Br)cc2s1)C(C)C (stereo not drawn) [Example 33, 1-(6-bromobenzo[d]thiazol-2-yl)-1-(4-isopropylpyridin-3-yl)-2-methylpropan-1-ol] | < 1000 |
| CCCC(O)(c1nc2cc3c(cc2s1)OC(F)(F)O3)c1cnccc1OCC (stereo not drawn) [Example 52, 1-(2,2-difluoro-[1,3]dioxolo[4′,5′:4,5]benzo[1,2-d]thiazol-6-yl)-1-(4-ethoxypyridin-3-yl)butan-1-ol] | < 1000 |
| CCOc1ccncc1C(O)(c1nc2cccc(Br)c2s1)C(C)C (stereo not drawn) [Example 1, 1-(7-bromobenzo[d]thiazol-2-yl)-1-(4-ethoxypyridin-3-yl)-2-methylpropan-1-ol] | < 1000 |
